# Source: patent publication US9944610B2, “Preparation and method for use in the treatment of respiratory diseases” (Universite Laval, priority 2013, dated 2018)
# What was measured:
# [1] = ASM-024 capsule stability study, NGI testing of fine particle mass (FPM); format: physicochemical; conditions: eight weeks at 40° C./75% RH
# Description: (§1) For method development using the NGI method, size three HPMC capsules were hand filled with forty milligrams of micronized ASM-024. Three capsules were tested according to manufacturer's instructions using the following conditions: • Cup coating agent: 3% PEG400 with 0.1% F68 in acetone • Testing flow rate: 60 LPM • Testing volume: 4 L (4 second actuation) • Device: Miat Monodose Inhaler (standard resistance) • Sample diluent: 70% MeOH: 30% H2O (v/v) • Dilutions • Device—50 ml • Throat—50 ml • Pre-separator—100 ml • Stage 1—MOC—10 ml • Filter—50 ml
# A two month study was performed at accelerated conditions with testing at two weeks, four weeks and eight weeks. Hand filled 40 mg capsules were packed in foil pouches with a 10 g desiccant pouch and heat sealed. Hand filled 40 mg capsules were also packed in foil pouches and heat sealed without a desiccant pouch. All heat seals were hand checked to ensure seal integrity. Pouches were placed on stability at 40° C./75% RH. NGI testing of the capsules stored without desiccant were conducted over the eight week study.
# [2] = Particle size analysis (PSD), Malvern Mastersizer; format: physicochemical
# Description: A 2 g sample of anhydrous crystalline ASM-024 was taken and fed through the Sturtevant Qualification Micronizer. The mill has a 2 inch chamber, and was operated at 80 psig grinding pressure and 90 psig feed pressure. Milled API was recovered from the exhaust filter sock and physically characterized.
# Particle size analysis was performed using a Malvern Mastersizer with a Small Sample Presentation Unit. The dispersant used was ethyl acetate with 2 g of SPAN 85 per liter. Samples were prepared by sonicating 5 mg of sample in 2 ml of dispersant, the sample was then added dropwise to achieve 20% obscuration.
# Magnesium stearate was blended with un-milled ASM-024 in two gram lots. Approximately one gram of ASM-024 was weighed into a 28 ml vial. The appropriate mass of magnesium stearate was then weighed on top of the API and the weight completed to two grams with ASM-024. The materials were blended using a Turbula T2F mixer at 101 rpm for ten minutes. The blended material was passed through the Sturtevant Qualification Micronizer and recovered from the filter sock.
# [3] = NGI aerosol testing, mass retained in device and capsule; format: physicochemical; conditions: 40 mg capsule fill weight, standard and high resistance Miat Monodose inhalers
# Description: as §1
# Aerosol performance and stability was assessed. Milled API was hand filled into size 3 HPMC capsules and size 3 gelatin capsules (40 mg capsule fill weight). NGI testing was performed in duplicate using standard resistance and high resistance Miat Monodose inhalers. […] The high resistance device has provided an increased FPM of ASM-024 from both HPMC and gelatin capsules.
# LTD4-induced contraction = assay: Relaxant effect on LTD4-induced contraction
# [4] = PSD of ASM-024 prior to micronization
# [5] = co-milled with 0.2 % w/w magnesium stearate
# [6] = co-milled with 0.5 % w/w magnesium stearate
# [7] = co-milled with 1.0 % w/w magnesium stearate
# [8] = co-milled with 2.0 % w/w magnesium stearate
# [9] = milled, 0.0 % magnesium stearate
smiles,measurement,setting,value
CC[N+]1(CC)CCCN(c2ccccc2)CC1 [ASM-024],decrease in FPM,[1]; 40 mg capsules in foil pouches with 10 g desiccant pouch,~5.7%
same,decrease in FPM,[1]; 40 mg capsules in foil pouches without desiccant,10.9%
same,d10,[2]; [4],13.92 μm
same,d50,[2]; [4],41.67 μm
same,d90,[2]; [4],91.89 μm
same,d10,[2]; after one pass in jet air mill,0.78 μm
same,d50,[2]; after one pass in jet air mill,2.10 μm
same,d90,[2]; after one pass in jet air mill,4.70 μm
same,d10,[2]; [5],0.89 µm
same,d50,[2]; [5],1.74 µm
same,d90,[2]; [5],3.33 µm
same,d10,[2]; [6],0.89 µm
same,d50,[2]; [6],1.86 µm
same,d90,[2]; [6],3.94 µm
same,d10,[2]; [7],0.9 µm
same,d50,[2]; [7],1.7 µm
same,d90,[2]; [7],3.17 µm
same,d10,[2]; [8],0.91 µm
same,d50,[2]; [8],1.69 µm
same,d90,[2]; [8],3.11 µm
same,d10,[2]; [9],0.97 µm
same,d50,[2]; [9],1.95 µm
same,d90,[2]; [9],3.8 µm
same,mass of ASM-024 retained in the device and capsule after NGI testing,[3],less than 20 mg
same,relaxant effect on LTD4-induced contraction,LTD4-induced contraction,no relaxant effect
